Data as given in article PMC5676773, “Odor-evoked inhibition of olfactory sensory neurons drives olfactory perception in Drosophila” (Nature Communications, 2017).

Columns and labels:
[1] = target: T1, Or85a (OR/ORCO complex in Or85a-OSNs) (Drosophila melanogaster, UniProt Q9VHS4); test: perforated patch clamp of Or85a-OSNs, outward receptor current (reduction of basal current); type: cell-based; details: 150-ms odor pulses, -80 mV; inhibits constitutive activity (inverse agonist), competitive against ethyl 3-hydroxybutyrate; Hill fit, n = 4; read-out: K 1/2
T1 construct: native receptor in Or85a-expressing olfactory sensory neurons, antennal slices; GFP-labelled via Or85a-Gal4; with Odorant receptor coreceptor
T1 sequence (Q9VHS4 1-397): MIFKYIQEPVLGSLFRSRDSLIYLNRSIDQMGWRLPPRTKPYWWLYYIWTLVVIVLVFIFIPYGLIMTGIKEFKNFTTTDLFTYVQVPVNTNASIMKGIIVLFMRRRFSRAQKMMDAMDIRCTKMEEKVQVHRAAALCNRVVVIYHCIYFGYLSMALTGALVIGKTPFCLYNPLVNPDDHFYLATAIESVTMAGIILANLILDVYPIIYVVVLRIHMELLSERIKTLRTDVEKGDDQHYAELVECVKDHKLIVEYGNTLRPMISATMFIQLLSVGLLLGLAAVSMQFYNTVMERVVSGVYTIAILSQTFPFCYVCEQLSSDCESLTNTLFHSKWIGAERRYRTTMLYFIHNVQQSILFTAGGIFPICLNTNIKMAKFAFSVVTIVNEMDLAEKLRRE
T1 sequence (Q9VNB5 1-486 partner): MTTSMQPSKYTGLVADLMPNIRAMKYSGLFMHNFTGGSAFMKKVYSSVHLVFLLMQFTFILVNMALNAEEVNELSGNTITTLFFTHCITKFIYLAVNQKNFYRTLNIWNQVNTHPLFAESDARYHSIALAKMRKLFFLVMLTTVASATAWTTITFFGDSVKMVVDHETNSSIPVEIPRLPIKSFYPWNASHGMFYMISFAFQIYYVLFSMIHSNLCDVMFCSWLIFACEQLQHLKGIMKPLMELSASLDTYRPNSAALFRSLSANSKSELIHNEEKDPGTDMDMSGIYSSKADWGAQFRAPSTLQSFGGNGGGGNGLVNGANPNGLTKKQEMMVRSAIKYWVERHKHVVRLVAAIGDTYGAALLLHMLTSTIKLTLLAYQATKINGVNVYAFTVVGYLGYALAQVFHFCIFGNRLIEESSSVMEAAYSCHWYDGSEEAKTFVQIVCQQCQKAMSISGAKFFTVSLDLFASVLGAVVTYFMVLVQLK

[2] = target: T1, Or85a (OR/ORCO complex in Or85a-OSNs); test: perforated patch clamp of Or85a-OSNs, inward receptor current; type: cell-based; details: 35-ms odor pulses, no acetophenone; excitatory odor (agonist); nominal concentration in saline; voltage-clamped; read-out: K 1/2

EC50 [2] [mM]	SMILES	IC50 [1] [mM]
	CC(=O)c1ccccc1 [acetophenone]	27 ± 13
1.1 ± 0.2	CCOC(=O)CC(C)O (centres unmarked) [ethyl 3-hydroxybutyrate]	
